Laboratory results reported in ChEMBL document CHEMBL1150149, “Bacopaside III, bacopasaponin G, and bacopasides A, B, and C from Bacopa monniera” (2002).

Tested on: Rattus norvegicus
Assay: Antihyperglycemic activity against streptozotocin-induced diabetic rat assessed as change in plasma glucose at 1 mM/kg, iv
Assay type: functional

How did the Activity turn out when `O=C(O)[C@H]1O[C@@H](Oc2cc(O)c3c(=O)cc(-c4ccc(O)c(O)c4)oc3c2)[C@H](O)[C@@H](O)[C@@H]1O` was run?
Its Activity is -25.54%.
